Converted amounts (≈) assume the structure as drawn.
What was measured:
[1] = target: CnFTase (C. neoformans farnesyl transferase, α/β heterodimer) (Cryptococcus neoformans, UniProt J9VSJ6+T2BPA1); assay: CnFTase activity assay: farnesylation of a dansylated (fluorescent) peptide, inhibitor concentration giving half-maximal enzyme rates at 1 μM FPP (1μMIC50); conditions: read-out: CnFTase IC50 (1μMIC50), condition A: 20 nM CnFTase, dansyl-GCVVM 0.62 μM, Tris-HCl pH 7.5, ZnCl2 12.5 μM, 2.5% DMSO, room temperature, triplicate
Method: CnFTase activity assay. […] Final CnFTase concentrations (from 5× or 10× stocks in 20 mM Tris-HCl pH7.5, 20 mM NaCl, 5 μM ZnCl2, 1 mM TCEP, 1 mg/mL BSA): A, 20 nM; B: 4.4, 6.7, 10 nM triplets. […] For experiments that included phosphate, pH 7.5 stock was added to the desired final concentration. […] Data for determining ^1μMIC50 values (condition A) was collected in triplicate. Initial rates, vo, were extracted by fitting a straight line to the initial to tmax seconds of the reaction progress curves, where tmax values were selected by inspection and entered into curator tables for automated analysis. 1μMIC50 were determined by fitting a single-site Langmuir ligand-binding isotherm to the dependence of vo on inhibitor concentration (2, see below). All other experiments (condition B) all other experiments (condition B) used three different CnFTase concentrations, collecting progress curves as a function of FPP, inhibitor, and phosphate concentrations. The resulting triplet of progress curves was used to extract vo values automatically by minimizing
If x is an inhibitor concentration, then IC50=Ka^−1. […] In general, baseline signals, σ, (α or β) can be constant, or linear functions of ligand concentration x

C. neoformans = assay: Minimum inhibitory concentration (MIC): disc diffusion and broth microdilution; conditions: Cryptococcus neoformans
Method: Antifungal activity was determined by measuring minimum inhibitory concentrations (MIC) of C. neoformans by two methods: a solid medium disc diffusion assay and broth microdilution assay.
Disc diffusion assay. Overnight cultures of C. neoformans (about 18 hours) were normalized to OD600 0.6, diluted 1/10, and 200 μL of each sample were spread onto either a YPD or YPGal (yeast extract-peptone medium with 3% galactose) plate using sterile glass beads. After drying, 10 μL of compound or solvent control (DMSO) was added to sterile 6 mm filter discs on each plate. Plates were incubated for 48 hours at 37° C.
Minimum inhibitory concentration (MIC) assays. C. neoformans: Overnight cultures (˜18 h) of C. neoformans strains incubated in YPD medium were diluted to 500 cells/ml in RPMI medium buffered with MOPS. Cells were aliquoted (200 μL/well) in black-wall, clear-bottom 96-wells plates (Greiner). Compound stock solutions in DMSO ranged from 9 μM to 20 mM, and added to 200 μL cell suspension aliquoted in 96-well plates. Final aqueous concentrations ranged from 200 μM to 0.09 μM, limiting DMSO to 1%. After 48-hr incubation at 37° C. or 30° C. for 48 h, 10% AlamarBlue (BioRad) was added. The end-point fluorescence intensity of reduced AlamarBlue was measured using a fluorescence plate reader (FLUORStar Optima plate reader) at the time point the indicator turned from blue to pink in healthy control cells.^51 Assays were performed in duplicate.

[2] = system: C. neoformans FTase (CnFTase); assay: CnFTase activity assay, farnesylation of a fluorescent (dansylated) peptide, 1μMIC50; assay type: biochemical, Cryptococcus neoformans; conditions: pairwise comparison of analogues differing in one R group
Method: The library of 23 compounds contained leads with 60- to 150-fold enhanced ^1μMIC50 values.
CnFTase activity assay. The farnesyl transferase activity was measured by measuring the time dependence of the fluorescence emission intensity increase due to farnesylation of a dansylated peptide (Cassidy, P. B, et al., Methods Enzymol, 1995, 250, 30-43). Measurements were taken at room temperature in a 96-well black polystyrene, half area, flat bottom, non-binding surface plate using a SpectraMax M5e plate reader (excitation wavelength, 340 nm; emission wavelength 525 nm; emission high-pass filter, 455 nm). […] Final CnFTase concentrations (from 5× or 10× stocks in 20 mM Tris-HCl pH7.5, 20 mM NaCl, 5 μM ZnCl2, 1 mM TCEP, 1 mg/mL BSA): A, 20 nM; B: 4.4, 6.7, 10 nM triplets. […] For experiments that included phosphate, pH 7.5 stock was added to the desired final concentration. Data was analyzed using Python scripts for the Biomolecular Computing (BMC) package, included in the Dryad electronic repository. Data for determining ^1μMIC50 values (condition A) was collected in triplicate. Initial rates, vo, were extracted by fitting a straight line to the initial to tmax seconds of the reaction progress curves, where tmax values were selected by inspection and entered into curator tables for automated analysis. 1μMIC50 were determined by fitting a single-site Langmuir ligand-binding isotherm to the dependence of vo on inhibitor concentration (2, see below). All other experiments (condition B) […] used three different CnFTase concentrations, collecting progress curves as a function of FPP, inhibitor, and phosphate concentrations. The resulting triplet of progress curves was used to extract vo values automatically by minimizing
Single-site binding isotherms. Signals, S, resulting from a binding reaction were fit to
where α and β are the baselines associated with the apo-protein and its ligand complex, respectively, and y fractional occupancy of the binding site
If x is an inhibitor concentration, then IC50=Ka^−1. For Michaelis-Menten analysis 2 is reduced to a standard form (Bahar, I.; Jernigan, R. L.; Dill, K. A. Protein Actions, principles & modeling. Garland Science: 2017) with S=vo (initial rates), α=0, β=Vmax (maximal velocity), and KM=Ka^−1 (substrate dissociation constant). In general, baseline signals, σ, (α or β) can be constant, or linear functions of ligand concentration x

Sequence of CnFTase (C. neoformans farnesyl transferase, α/β heterodimer) (J9VSJ6 entry or part of it): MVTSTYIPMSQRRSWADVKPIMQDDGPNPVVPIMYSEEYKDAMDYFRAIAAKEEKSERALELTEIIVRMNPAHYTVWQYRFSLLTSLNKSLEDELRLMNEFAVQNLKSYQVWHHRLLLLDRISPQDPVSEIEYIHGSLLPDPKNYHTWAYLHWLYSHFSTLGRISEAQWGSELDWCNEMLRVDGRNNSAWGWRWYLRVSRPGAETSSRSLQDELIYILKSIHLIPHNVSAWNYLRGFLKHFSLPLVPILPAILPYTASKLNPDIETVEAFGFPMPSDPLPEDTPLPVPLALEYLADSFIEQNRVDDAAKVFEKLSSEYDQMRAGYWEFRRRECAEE
Sequence of CnFTase (C. neoformans farnesyl transferase, α/β heterodimer) (T2BPA1 entry or part of it): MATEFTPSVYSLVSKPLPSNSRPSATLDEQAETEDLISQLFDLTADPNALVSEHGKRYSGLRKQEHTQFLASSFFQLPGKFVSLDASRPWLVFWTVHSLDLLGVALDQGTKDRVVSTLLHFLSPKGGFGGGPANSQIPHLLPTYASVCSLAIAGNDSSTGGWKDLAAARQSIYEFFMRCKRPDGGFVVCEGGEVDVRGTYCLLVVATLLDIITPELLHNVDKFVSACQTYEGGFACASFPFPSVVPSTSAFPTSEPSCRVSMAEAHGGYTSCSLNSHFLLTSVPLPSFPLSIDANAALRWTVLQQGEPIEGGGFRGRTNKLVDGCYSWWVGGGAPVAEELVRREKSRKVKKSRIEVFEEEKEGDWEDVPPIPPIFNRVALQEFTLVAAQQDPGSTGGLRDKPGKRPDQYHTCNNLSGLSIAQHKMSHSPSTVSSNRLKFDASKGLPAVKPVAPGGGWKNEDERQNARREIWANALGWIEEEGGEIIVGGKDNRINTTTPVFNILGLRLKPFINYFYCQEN

SMILES	IC50 [1] [nM]	MIC (C. neoformans) [µM]	change of affinity relative to the comparator analogue (cf.) [2]
CCCC[C@H]1CN(c2cccc(Cl)c2)C(=O)CN1Cc1cncn1Cc1ccc(C#N)cc1 [Compound 2a, (S)-4-((5-((2-Butyl-4-(3-chlorophenyl)-5-oxopiperazin-1-yl)methyl)-1H-imidazol-1-yl)methyl)benzonitrile]	100 ± 10	–	–
CCCC[C@H]1CN(c2cccc(Cl)c2)C(=O)CN1Cc1cncn1Cc1ccc(Br)cc1 [Compound 2b, (S)-4-((1-(4-Bromobenzyl)-1H-imidazol-5-yl)methyl)-5-butyl-1-(3-chlorophenyl)piperazin-2-one]	1100 ± 780	–	–
CCCC[C@H]1CN(c2cccc(Cl)c2)C(=O)CN1Cc1cncn1Cc1ccc(Cl)cc1 [Compound 2c, (S)-5-Butyl-4-((1-(4-chlorobenzyl)-1H-imidazol-5-yl)methyl)-1-(3-chlorophenyl)piperazin-2-one]	1600 ± 800	–	–
CCCC[C@H]1CN(c2cccc(OC(F)(F)F)c2)C(=O)CN1Cc1cncn1Cc1ccc(C#N)cc1 [Compound 2d, (S)-4-((5-((2-butyl-5-oxo-4-(3-(trifluoromethoxy)-phenyl)piperazin-1-yl)methyl)-1H-imidazol-1-yl)methyl)benzonitrile]	340 ± 220	–	–
CCCC[C@H]1CN(c2cccc(OC(F)(F)F)c2)C(=O)CN1Cc1cncn1Cc1ccc(Cl)cc1 [Compound 2e]	260 ± 130	3 to 6 (≈ 1.56 to 3.13 µg/mL)	–
CCCC[C@H]1CN(c2cccc(OC(F)(F)F)c2)C(=O)CN1Cc1cncn1Cc1ccc(F)cc1 [Compound 2g, (S)-5-butyl-4-((1-(4-fluorobenzyl)-1H-imidazol-5-yl)methyl)-1-(3-(trifluoromethoxy)phenyl)piperazin-2-one]	710 ± 240	–	–
CCCC[C@H]1CN(c2cccc(OC(F)(F)F)c2)C(=O)CN1Cc1cncn1Cc1ccc(C(F)(F)F)cc1 [Compound 2h, (S)-5-Butyl-1-(3-(trifluoromethoxy)phenyl)-4-((1-(4-(trifluoromethyl)benzyl)-1H-imidazol-5-yl)methyl)piperazin-2-one]	280 ± 150	3 to 6 (≈ 1.66 to 3.33 µg/mL)	–
CCCC[C@H]1CN(c2cccc(OC(F)(F)F)c2)C(=O)CN1Cc1cncn1Cc1ccccc1 [Compound 2i, (S)-4-((1-Benzyl-1H-imidazol-5-yl)methyl)-5-butyl-1-(3-(trifluoromethoxy)phenyl)piperazin-2-one]	1900 ± 1700	–	–
N#Cc1ccc(Cn2cncc2CN2CCN(c3cccc(OC(F)(F)F)c3)C(=O)C2)cc1 [Compound 2j, (S)-4-((5-((3-Oxo-4-(3-(trifluoromethoxy)phenyl)piperazin-1-yl)methyl)-1H-imidazol-1-yl)methyl)benzonitrile]	2700 ± 1100	–	had little effect or were slightly deleterious
CCC[C@H]1CN(c2cccc(OC(F)(F)F)c2)C(=O)CN1Cc1cncn1Cc1ccc(Br)cc1 [Compound 2k, (S)-4-((1-(4-Bromobenzyl)-1H-imidazol-5-yl)methyl)-5-propyl-1-(3-(trifluoromethoxy)phenyl) piperazin-2-one]	1100 ± 510	3 to 6 (≈ 1.65 to 3.31 µg/mL)	reduced affinity
CCCCC[C@H]1CN(c2cccc(OC(F)(F)F)c2)C(=O)CN1Cc1cncn1Cc1ccc(Br)cc1 [Compound 2l, (S)-4-((1-(4-Bromobenzyl)-1H-imidazol-5-yl)methyl)-5-pentyl-1-(3-(trifluoromethoxy)phenyl)piperazin-2-one]	160 ± 20	–	–
CCCC[C@H]1CN(c2ccccc2)C(=O)CN1Cc1cncn1Cc1ccc(Br)cc1 [Compound 2m, (S)-4-((1-(4-Bromobenzyl)-1H-imidazol-5-yl)methyl)-5-butyl-1-phenylpiperazin-2-one]	920 ± 510	–	–
CCCC[C@H]1CN(c2cccc(C)c2C)C(=O)CN1Cc1cncn1Cc1ccc(C#N)cc1 [Compound 2n, (S)-4-((5-((2-butyl-4-(2,3-dimethylphenyl)-5-oxopiperazin-1-yl)methyl)-1H-imidazol-1-yl)methyl)benzonitrile]	2200 ± 1300	–	had little effect or were slightly deleterious
CCCC[C@H]1CN(c2cccc(OC(F)(F)F)c2)C(=O)CN1Cc1cncn1Cc1cccc(C#N)c1 [Compound 2o, (S)-3-((5-((2-Butyl-5-oxo-4-(3-(trifluoromethoxy)-phenyl)piperazin-1-yl)methyl)-1H-imidazol-1-yl)methyl)benzonitrile]	740 ± 310	–	–
CCCC[C@H]1CN(c2cccc(OC(F)(F)F)c2)C(=O)CN1Cc1cncn1Cc1ccc(F)c(C#N)c1 [Compound 2p, (S)-5-((5-((2-Butyl-5-oxo-4-(3-(trifluoromethoxy)phenyl)piperazin-1-yl)methyl)-1H-imidazol-1-yl)methyl)-2-fluorobenzonitrile]	180 ± 100	–	–
N#Cc1cc(Cn2cncc2CN2CCN(c3cccc(OC(F)(F)F)c3)C(=O)C2)ccc1F [Compound 2r, 2-Fluoro-5-((5-((3-oxo-4-(3-(trifluoromethoxy)phenyl)piperazin-1-yl)methyl)-1H-imidazol-1-yl)methyl)benzonitrile]	550 ± 30	–	–
N#Cc1ccc(Cn2cncc2CN2CCN(c3cccc(OC(F)(F)F)c3)C(=O)C2)cc1F [Compound 2s, 2-Fluoro-4-((5-((3-Oxo-4-(3-(trifluoromethoxy)phenyl)piperazin-1-yl)methyl)-1H-imidazol-1-yl)methyl)benzonitrile]	120 ± 40	–	20 fold
CCCC[C@H]1CN(c2cccc(OC(F)(F)F)c2)C(=O)CN1Cc1cncn1Cc1ccc(Oc2ccccc2)c(C#N)c1 [Compound 2t, (S)-5-((5-((2-Butyl-5-oxo-4-(3-(trifluoromethoxy)phenyl)-piperazin-1-yl)methyl)-1H-imidazol-1-yl)methyl)-2-phenoxybenzonitrile]	210 ± 100	–	–
CCCC[C@H]1CN(c2cccc(OC(F)(F)F)c2)C(=O)CN1Cc1cncn1Cc1ccc(C#N)c(Oc2ccccc2)c1 [Compound 2u, (S)-4-((5-((2-butyl-5-oxo-4-(3-(trifluoromethoxy)phenyl)-piperazin-1-yl)methyl)-1H-imidazol-1-yl)methyl)-2-phenoxybenzonitrile]	150 ± 60	–	did not alter affinities
N#Cc1cc(Cn2cncc2CN2CCN(c3cccc(OC(F)(F)F)c3)C(=O)C2)ccc1Oc1ccccc1 [Compound 2v]	320 ± 100	–	–
N#Cc1ccc(Cn2cncc2CN2CCN(c3cccc(OC(F)(F)F)c3)C(=O)C2)cc1Oc1ccccc1 [Compound 2w, 4-((5-((3-Oxo-4-(3-(trifluoromethoxy)phenyl)piperazin-1-yl)methyl)-1H-imidazol-1-yl)methyl)-2-phenoxybenzonitrile]	2600 ± 1400	–	did not alter affinities
CCCCC[C@H]1CN(c2cccc(OC(F)(F)F)c2)C(=O)CN1Cc1cncn1Cc1ccc(Br)cc1 [Compound 21, (S)-4-((1-(4-Bromobenzyl)-1H-imidazol-5-yl)methyl)-5-pentyl-1-(3-(trifluoromethoxy)phenyl)piperazin-2-one]	–	3 to 6 (≈ 1.74 to 3.48 µg/mL)	showed little improvement

Source: patent US20250114350A1, “INHIBITORS OF […] AS ANTIFUNGAL AGENTS” (Regents of the University of Minnesota, priority 2023, published 2025)
